ChEMBL document CHEMBL6096728, “Simultaneous Induction of Immunogenic Pyroptosis and PD-L1 Downregulation by One Single Photosensitizer for Synergistic Cancer Photoimmunotherapy” (J Med Chem, 2025)
Active and inactive are the calls of the source. The rule behind the calls is not given here.

Legend:
[1] = Phototoxicity against mouse 4T1 cells preincubated for 24 hrs followed by light irradiation of 20 mW.cm/2 at 400 to 700nm for 10 mins under hypoxia condition by CCK-8 method; format: functional, cell-based; details: 4T1, light or radiation study
MDA-MB-231 [2] = assay: Induction of cell death in human MDA-MB-231 cells assessed as decrease in green fluorescence at 0.5 uM incubated for 24 hrs followed by light irradiation of 20 mW.cm/2 at 400 to 700nm for 10 mins by Calcein-AM/PI staining based analysis; format: functional
[3] = Phototoxicity against human MDA-MB-231 cells preincubated for 24 hrs followed by light irradiation of 20 mW.cm/2 at 400 to 700nm for 10 mins under hypoxia condition by CCK-8 method; format: functional, cell-based; details: MDA-MB-231, light or radiation study
4T1 [4] = assay: Induction of cell death in mouse 4T1 cells assessed as increase in red fluorescence at 0.5 uM incubated for 24 hrs followed by light irradiation of 20 mW.cm/2 at 400 to 700nm for 10 mins by Calcein-AM/PI staining based analysis; format: functional
4T1 [5] = assay: Induction of cell death in mouse 4T1 cells assessed as decrease in green fluorescence at 0.5 uM incubated for 24 hrs followed by light irradiation of 20 mW.cm/2 at 400 to 700nm for 10 mins by Calcein-AM/PI staining based analysis; format: functional
MDA-MB-231 [6] = assay: Induction of cell death in human MDA-MB-231 cells assessed as increase in red fluorescence at 0.5 uM incubated for 24 hrs followed by light irradiation of 20 mW.cm/2 at 400 to 700nm for 10 mins by Calcein-AM/PI staining based analysis; format: functional

CCN(CC)c1ccc2nc3c4ccccc4c(=O)cc-3oc2c1 [NILE RED]
IC50 [1]: > 10 µM | Activity (MDA-MB-231 [2]): inactive | IC50 [3]: > 10 µM | Activity (4T1 [4]): inactive | Activity (4T1 [5]): inactive | Activity (MDA-MB-231 [6]): inactive
